Legend:
[1] = test system: Arabidopsis thaliana homozygous max4 knockout mutant; experiment: Complementation of ectopic shoot branching in max4 strigolactone biosynthesis mutant; format: in vivo; conditions: max4 mutant line, 10 μM in 0.5× Hoagland's reservoir solution, 0.1% DMSO, 3 weeks of treatment, vs DMSO control (FIG. 1)
Description: FIG. 1 is a plot of the number of secondary bolts over 0.5 cm long of strigolactone biosynthesis mutant, homozygous max4 knockout, plants that have a primary bolt over 6 cm long treated with solution containing control solvent DMSO, strigolactone molecule MBS-127 in DMSO, and strigolactone molecule MBS-128 in DMSO. Stars indicate significant differences relative to the DMSO control based on the Welch's t-test (*: adjusted p-value <0.1; p-values adjusted for multiple-hypothesis testing
The ability of a novel compound to act in an equivalent manner to a native strigolactone can be assessed by testing its ability to complement phenotypes caused by mutations that disrupt the natural biosynthesis of strigolactones within the plant.
The metric used to assess branching was the number of secondary bolts over 0.5 cm in length in plants that have a primary bolt over 6 cm long. Assessments were made after treatments with solution containing control solvent DMSO, the strigolactone molecule MBS-127 in DMSO, and the strigolactone molecule MBS-128 in DMSO as detailed below. Stratified A. thaliana homozygous max4 knockout mutant seeds were planted on rockwool plugs suspended above reservoirs of 0.5× Hoagland's solution. The plants were grown under 16 hours of light per day at 22° C. and at 19° C. during the nights throughout the experiment. […]

[2] = test system: A. thaliana Columbia (Col-0); experiment: Root hair elongation on phosphate limiting media; format: in vivo, Arabidopsis thaliana; conditions: in DMSO (0.1%), images after seven days, vs DMSO (FIG. 3)
Description: FIG. 3 is a boxplot representing the maximum root hair length in the root apical zone of A. thaliana treated with the control solvent DMSO, strigolactone molecule MBS-127 in DMSO, and strigolactone molecule MBS-128 in DMSO. Stars indicate significant differences relative to the DMSO control (*: adjusted p-value <0.01; p-values adjusted for multiple-hypothesis testing); non-parametric Mann-Whitney U-tests were used to assess significance. Representative images show root hairs in the root apical zone of plants treated with the control solvent DMSO, the strigolactone molecule MBS-127 in DMSO, and the strigolactone molecule MBS-128 in DMSO. Scale bars equal 1 mm. […]
In this experiment sterilized seeds of the A. thaliana Columbia (Col-0) ecotype were planted on growth media (Murashige and Skoog (MS) M404 with vitamins (2.2 g/L), 0.5% sucrose, 0.05% IVIES hydrate, 0.6% PhytoBlend™) and grown for nine days. […] The longest root hair, within the root apical zone, was measured from the images using ImageJ. […]

[3] = test system: Z. mays; experiment: Root hair elongation in maize under insufficient phosphate; format: in vivo, Zea mays; conditions: various nutrient levels, shown under insufficient phosphate conditions, vs DMSO (FIG. 4)
Description: FIG. 4 is a boxplot graph representing the distribution of maximum root hair length in the root apical zone of Z. mays with the control solvent DMSO, strigolactone molecule MBS-127 in DMSO, and strigolactone molecule MBS-128 in DMSO. Stars indicate significant differences relative to the DMSO control (*: adjustedp-value <0.1; p-values were adjusted for multiple-hypothesis testing using a Bonferroni correction). Representative images show root hairs in the root apical zone of plants treated with the control solvent DMSO, strigolactone molecule MBS-127 in DMSO, and strigolactone molecule MBS-128 in DMSO. Scale bars equal 10 mm.

[4] = test system: A. thaliana Columbia (Col-0) seedlings; experiment: Desiccation stress survival assay of seedlings; format: in vivo, Arabidopsis thaliana; conditions: 50 μM in media, 0.4% DMSO, three days, 4 hours desiccation, seven days recovery (FIG. 5)
Description: Post germination desiccation is an extreme form of dehydration which can be used as a survival assay for testing abiotic stress tolerance in plants. While desiccation stress is distinct from the gradual onset of drought typically experienced in an agricultural setting, the response in the plant has many commonalities across both cases (Fernando, V. C., & Schroeder, D. F. “Role of ABA in Arabidopsis Salt, Drought, and Desiccation Tolerance,” (2016), pp. 507-518), and increased tolerance in one case can often predict tolerance in the other.
In this experiment sterilized and stratified seeds of the A. thaliana Columbia (Col-0) were planted on growth media (Murashige and Skoog (MS) M404 with vitamins (2.2 g/L), 0.5% sucrose, 0.05% IVIES hydrate, 0.6% PhytoBlend™) and grown for nine days in a growth chamber with continuous light at 22° C. The seedlings were then transplanted to same media supplemented with the control solvent DMSO, strigolactone molecule MBS-127 in DMSO, or strigolactone molecule MBS-128 in DMSO. The final concentration of DMSO in the media was 0.4% and the concentration of MBS-127 and MBS-128 was 50 μM. After three days of growth on the treatment media the seedlings were photographed and then transplanted to dry filter paper and subjected to 4 hours of desiccation stress. […]

Row | Compound | ectopic branching phenotype (number of secondary bolts over 0.5 cm on plants with primary bolt over 6 cm) [1] | root hair elongation and proliferation (maximum root hair length in the root apical zone) [2] | root hair elongation (maximum root hair length in the root apical zone) [3] | survival and vigor of seedlings exposed to severe desiccation stress [4]
1 | COC(=O)/C=C/OC1C=C(C)C(=O)O1 (centres unmarked) [MBS-127, 3-(4-Methyl-5-oxo-2,5-dihydro-furan-2-yloxy)-acrylic acid methyl ester] | effective in reducing the ectopic branching phenotype | enhance root hair elongation and proliferation | induce root hair elongation | increase the survival and vigor
2 | COC(=O)/C=C/OC1(C)C=C(C)C(=O)O1 (centres unmarked) [MBS-128, methyl (E)-3-((2,4-dimethyl-5-oxo-2,5-dihydrofuran-2-yl)oxy)acrylate] | effective in reducing the ectopic branching phenotype | enhance root hair elongation and proliferation | induce root hair elongation | increase the survival and vigor
